Source: ChEMBL document CHEMBL1201862, “PubChem BioAssay data set” (2004)
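Results reflect a 48-hour exposure of cells in 96-well plates to compound at five concentrations. GI50 = concentration required for 50% inhibition of growth.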 Activity calls are given as the source filed them. Cut-off read from the data, not from the text of the source: active = GI50 up to about 1.1 µM and inactive = higher.

Key:
Test in all cases: growth of human tumour cells (NCI), 48 h
[1] = system: A498
[2] = system: COLO 205
[3] = system: HCT-116
[4] = system: HCT-15
[5] = system: K562
[6] = system: KM12
[7] = system: M14
[8] = system: MOLT-4
[9] = system: Malme-3M
[10] = system: NCI-H226
[11] = system: NCI-H23
[12] = system: NCI-H460
[13] = system: NCI-H522
[14] = system: NCI/ADR-RES
[15] = system: OVCAR-4
[16] = system: OVCAR-8
[17] = system: RPMI-8226
[18] = system: RXF 393
[19] = system: SK-MEL-2
[20] = system: SNB-75

Structure (SMILES)	GI50 [1]	GI50 [2]	GI50 [3]	GI50 [4] [µM]	GI50 [5]	GI50 [6]	GI50 [7]	GI50 [8]	GI50 [9]	GI50 [10]	GI50 [11]	GI50 [12]	GI50 [13]	GI50 [14]	GI50 [15]	GI50 [16]	GI50 [17]	GI50 [18]	GI50 [19]	GI50 [20]
COc1ccc(C2C3=C(COC3=O)Oc3cc4c(cc32)OCO4)cc1OC (stereo unspecified)	0.352 µM (active)	0.879 µM (active)	0.465 µM (active)	0.397	0.337 µM (active)	0.301 µM (active)	1.52 µM (inactive)	0.466 µM (active)	0.682 µM (active)	4.65 µM (inactive)	3.94 µM (inactive)	0.547 µM (active)	0.437 µM (active)	0.33 µM (active)	37.9 µM (inactive)	4.05 µM (inactive)	0.447 µM (active)	0.891 µM (active)	0.679 µM (active)	1.82 µM (inactive)
CCOP1(=O)C=C(Sc2ccc([N+](=O)[O-])cc2[N+](=O)[O-])C(C)(C)O1 (stereo unspecified)	25.6 µM (inactive)	10.5 µM (inactive)	5.42 µM (inactive)	14.7	2.52 µM (inactive)	16.5 µM (inactive)	11.9 µM (inactive)	4.13 µM (inactive)	12 µM (inactive)	25.5 µM (inactive)	18.3 µM (inactive)	21 µM (inactive)	3.64 µM (inactive)	25.3 µM (inactive)	13.5 µM (inactive)	16.7 µM (inactive)	5.25 µM (inactive)	17.9 µM (inactive)	11.3 µM (inactive)	19.8 µM (inactive)
COC(=O)c1sc2nc(Nc3ccccc3)/c(=N\c3ccccc3)sc2c1C	53.7 µM (inactive)	> 100 µM (inactive)	51.8 µM (inactive)	> 100	> 100 µM (inactive)	> 100 µM (inactive)		> 100 µM (inactive)	> 100 µM (inactive)	> 100 µM (inactive)	94.4 µM (inactive)	45.4 µM (inactive)	30.3 µM (inactive)	80.5 µM (inactive)	64.7 µM (inactive)	64.1 µM (inactive)	> 100 µM (inactive)	24.3 µM (inactive)	48.6 µM (inactive)	25 µM (inactive)
COc1ccccc1NC(=O)O/N=C(/Cl)C(C)C	15.6 µM (inactive)	2.4 µM (inactive)	14.1 µM (inactive)	13.2	2.24 µM (inactive)	20.2 µM (inactive)	5.9 µM (inactive)	1.92 µM (inactive)	2.78 µM (inactive)	20.8 µM (inactive)	14 µM (inactive)	19.3 µM (inactive)	1.81 µM (inactive)	15.3 µM (inactive)		15 µM (inactive)	2.1 µM (inactive)	14.9 µM (inactive)	16.4 µM (inactive)	0.889 µM (active)
N#Cc1c(-c2ccc(Cl)cc2)cc(-c2ccc(Nc3ccnc4cc(Cl)ccc34)cc2)[nH]c1=O	50.4 µM (inactive)	> 100 µM (inactive)	44.2 µM (inactive)	> 100	> 54.5 µM (inactive)	> 61 µM (inactive)	> 100 µM (inactive)	> 58.6 µM (inactive)	> 65.8 µM (inactive)	> 100 µM (inactive)	24.7 µM (inactive)	> 100 µM (inactive)	> 38.6 µM (inactive)	> 100 µM (inactive)	> 100 µM (inactive)	> 100 µM (inactive)	> 62.5 µM (inactive)	30.4 µM (inactive)	31.4 µM (inactive)	14.6 µM (inactive)
COc1ccc2[nH]c3c(C)c4ccnc(NCCCN(C)CCCN)c4c(C)c3c2c1	0.217 µM (active)	0.0778 µM (active)	0.107 µM (active)	0.258	0.118 µM (active)	0.258 µM (active)	0.171 µM (active)	0.111 µM (active)	0.31 µM (active)	0.0458 µM (active)	0.202 µM (active)	0.091 µM (active)	0.0189 µM (active)	0.394 µM (active)	0.0809 µM (active)	0.162 µM (active)	0.281 µM (active)	0.0622 µM (active)	0.336 µM (active)	0.0257 µM (active)
C=C(Cl)C(Cl)(CBr)CCC(Cl)C(C)(C)Cl (stereo unspecified)	1.77 µM (inactive)	4.15 µM (inactive)	0.638 µM (active)	3.57	2.22 µM (inactive)	0.375 µM (active)	17.9 µM (inactive)	17.7 µM (inactive)	7.24 µM (inactive)	22.2 µM (inactive)	8.89 µM (inactive)	1.19 µM (inactive)	8.2 µM (inactive)	3.01 µM (inactive)	1.09 µM (active)	2.36 µM (inactive)	0.112 µM (active)	1.35 µM (inactive)	0.238 µM (active)	0.23 µM (active)
CC(C)=CCc1c(O)c(CC=C(C)C)c2oc3c(c(=O)c2c1O)C(C=C(C)C)Oc1cc(O)ccc1-3 (stereo unspecified)	16.2 µM (inactive)	16 µM (inactive)	3.74 µM (inactive)	5.05	3.98 µM (inactive)	2.94 µM (inactive)	7.69 µM (inactive)	3.84 µM (inactive)	20.7 µM (inactive)	20.5 µM (inactive)	4.67 µM (inactive)	4.49 µM (inactive)	3.9 µM (inactive)	12.1 µM (inactive)	7.14 µM (inactive)	6.85 µM (inactive)	3.76 µM (inactive)	3.12 µM (inactive)	2.92 µM (inactive)	4.07 µM (inactive)
CCOC(=O)C(CC#Cc1ccc(C#CCC(NC(C)=O)C(=O)OCC)cc1)NC(C)=O (stereo unspecified)	> 100 µM (inactive)	> 100 µM (inactive)	> 100 µM (inactive)	> 100	> 100 µM (inactive)	> 100 µM (inactive)	> 100 µM (inactive)	> 100 µM (inactive)	> 100 µM (inactive)	> 100 µM (inactive)	> 100 µM (inactive)	> 100 µM (inactive)	> 100 µM (inactive)	> 100 µM (inactive)	> 100 µM (inactive)	> 100 µM (inactive)	> 100 µM (inactive)	> 100 µM (inactive)	> 100 µM (inactive)	> 100 µM (inactive)
CCCCCC/C=C\CCCCCCCCC(=O)c1cccc(OC)c1OC	26 µM (inactive)	87.3 µM (inactive)	41.7 µM (inactive)	> 100	27.5 µM (inactive)	84.7 µM (inactive)	> 100 µM (inactive)	25.7 µM (inactive)	> 100 µM (inactive)	> 100 µM (inactive)	40.2 µM (inactive)		44.6 µM (inactive)	60.8 µM (inactive)		> 100 µM (inactive)	34 µM (inactive)	21 µM (inactive)	> 100 µM (inactive)	> 100 µM (inactive)
C[N+]12C=CC=C1C(N1CCCC1)c1scc(-c3ccccc3)c12 (stereo unspecified)	38.5 µM (inactive)	15.1 µM (inactive)	32.3 µM (inactive)		6 µM (inactive)	8.55 µM (inactive)	50.2 µM (inactive)	19.3 µM (inactive)	11.8 µM (inactive)	1.6 µM (inactive)			3.28 µM (inactive)	> 100 µM (inactive)		22.5 µM (inactive)	5.92 µM (inactive)	17.8 µM (inactive)	6.78 µM (inactive)	3.99 µM (inactive)
COc1cccc(/C=N/NC(=O)CSCC(=O)N/N=C/c2cccc(OC)c2OC)c1OC	51.2 µM (inactive)	> 100 µM (inactive)	> 100 µM (inactive)	> 100	> 100 µM (inactive)	> 100 µM (inactive)	> 100 µM (inactive)	> 100 µM (inactive)	> 100 µM (inactive)	> 100 µM (inactive)	> 100 µM (inactive)	> 100 µM (inactive)	> 100 µM (inactive)	> 100 µM (inactive)	> 100 µM (inactive)	> 100 µM (inactive)	> 100 µM (inactive)	> 100 µM (inactive)	> 100 µM (inactive)	> 100 µM (inactive)
CC(=O)OC1COC(n2nc(/C=C/c3ccc(Cl)cc3)c(=O)n(/N=C/c3ccccc3)c2=S)C(OC(C)=O)C1OC(C)=O (stereo unspecified)	> 100 µM (inactive)	> 100 µM (inactive)	> 100 µM (inactive)	> 100	> 100 µM (inactive)	> 100 µM (inactive)	> 100 µM (inactive)	> 100 µM (inactive)	> 100 µM (inactive)	> 100 µM (inactive)	> 100 µM (inactive)	> 100 µM (inactive)	> 100 µM (inactive)	> 100 µM (inactive)	> 100 µM (inactive)	> 100 µM (inactive)	> 100 µM (inactive)	> 100 µM (inactive)	> 100 µM (inactive)	> 100 µM (inactive)
CC(C)=CC(=O)O[C@@H]1CC(C)(C)CC2C3=CCC4[C@]56CC[C@](O)(OC5)C(C)(C)C6CC[C@@]4(C)C3(C)CC[C@]21C(=O)O (stereo partly specified)	> 100 µM (inactive)	22.8 µM (inactive)	38 µM (inactive)	31.4	48 µM (inactive)	33 µM (inactive)	> 100 µM (inactive)	55.2 µM (inactive)	> 100 µM (inactive)	34.2 µM (inactive)	26.1 µM (inactive)	35.2 µM (inactive)	51.6 µM (inactive)	47.6 µM (inactive)	63.2 µM (inactive)	59.6 µM (inactive)	27.8 µM (inactive)	> 100 µM (inactive)	> 100 µM (inactive)	
